# Test results as given in the NIST ThermoML archive (doi:10.1021/je700260f).
# Numbers after ± are expanded uncertainties.
# Details: 293.15 K, Liquid, Vibrating tube method
smiles,measurement,setting,value
"FC(C(F)(F)F)C(F)(F)F [1,1,1,2,3,3,3-heptafluoropropane]",mass density,19492 kPa,1505.8 ± 1.6 kg/m3
same,mass density,19631 kPa,1506.6 ± 1.6 kg/m3
same,mass density,19665 kPa,1506.5 ± 1.6 kg/m3
same,mass density,19699 kPa,1506.6 ± 1.6 kg/m3
same,mass density,19732 kPa,1506.9 ± 1.6 kg/m3
same,mass density,19762 kPa,1506.9 ± 1.6 kg/m3
same,mass density,19806 kPa,1507.1 ± 1.6 kg/m3
same,mass density,19844 kPa,1507.3 ± 1.6 kg/m3
same,mass density,19868 kPa,1507.3 ± 1.6 kg/m3
same,mass density,19906 kPa,1507.5 ± 1.6 kg/m3
same,mass density,19940 kPa,1507.7 ± 1.6 kg/m3
same,mass density,19974 kPa,1507.8 ± 1.6 kg/m3
same,mass density,20007 kPa,1507.9 ± 1.6 kg/m3
same,mass density,20047 kPa,1508 ± 1.6 kg/m3
same,mass density,20080 kPa,1508.1 ± 1.6 kg/m3
same,mass density,20109 kPa,1508.3 ± 1.6 kg/m3
same,mass density,20152 kPa,1508.4 ± 1.6 kg/m3
same,mass density,20190 kPa,1508.6 ± 1.6 kg/m3
same,mass density,20215 kPa,1508.7 ± 1.6 kg/m3
same,mass density,20258 kPa,1508.8 ± 1.6 kg/m3
same,mass density,20302 kPa,1508.9 ± 1.6 kg/m3
same,mass density,20335 kPa,1509.2 ± 1.6 kg/m3
same,mass density,20375 kPa,1509.2 ± 1.6 kg/m3
same,mass density,20404 kPa,1509.3 ± 1.6 kg/m3
same,mass density,20434 kPa,1509.5 ± 1.6 kg/m3
same,mass density,20478 kPa,1509.6 ± 1.6 kg/m3
same,mass density,20517 kPa,1509.9 ± 1.6 kg/m3
same,mass density,20546 kPa,1510 ± 1.6 kg/m3
same,mass density,20591 kPa,1510.1 ± 1.6 kg/m3
same,mass density,20630 kPa,1510.1 ± 1.6 kg/m3
same,mass density,20659 kPa,1510.3 ± 1.6 kg/m3
same,mass density,20702 kPa,1510.5 ± 1.6 kg/m3
same,mass density,20732 kPa,1510.6 ± 1.6 kg/m3
same,mass density,20761 kPa,1510.6 ± 1.6 kg/m3
same,mass density,20802 kPa,1510.8 ± 1.6 kg/m3
same,mass density,20843 kPa,1511 ± 1.6 kg/m3
same,mass density,20873 kPa,1511 ± 1.6 kg/m3
same,mass density,20907 kPa,1511.2 ± 1.6 kg/m3
same,mass density,20982 kPa,1511.5 ± 1.6 kg/m3
same,mass density,21017 kPa,1511.6 ± 1.6 kg/m3
same,mass density,21048 kPa,1511.8 ± 1.6 kg/m3
same,mass density,21094 kPa,1511.9 ± 1.6 kg/m3
same,mass density,21134 kPa,1512 ± 1.6 kg/m3
same,mass density,21164 kPa,1512.1 ± 1.6 kg/m3
same,mass density,21209 kPa,1512.3 ± 1.6 kg/m3
same,mass density,21245 kPa,1512.4 ± 1.6 kg/m3
same,mass density,21279 kPa,1512.5 ± 1.6 kg/m3
same,mass density,21314 kPa,1512.7 ± 1.6 kg/m3
same,mass density,21359 kPa,1512.8 ± 1.6 kg/m3
same,mass density,21389 kPa,1513 ± 1.6 kg/m3
same,mass density,21458 kPa,1513.1 ± 1.6 kg/m3
same,mass density,21488 kPa,1513.2 ± 1.6 kg/m3
same,mass density,21669 kPa,1513.9 ± 1.6 kg/m3
same,mass density,21699 kPa,1513.9 ± 1.6 kg/m3
same,mass density,21739 kPa,1514.2 ± 1.6 kg/m3
same,mass density,21927 kPa,1514.8 ± 1.6 kg/m3
same,mass density,21967 kPa,1515 ± 1.6 kg/m3
same,mass density,22009 kPa,1515.2 ± 1.6 kg/m3
same,mass density,22034 kPa,1515.3 ± 1.6 kg/m3
same,mass density,22076 kPa,1515.4 ± 1.6 kg/m3
same,mass density,22122 kPa,1515.5 ± 1.6 kg/m3
same,mass density,22152 kPa,1515.7 ± 1.6 kg/m3
same,mass density,22194 kPa,1515.8 ± 1.6 kg/m3
same,mass density,22230 kPa,1515.9 ± 1.6 kg/m3
same,mass density,22261 kPa,1516.2 ± 1.6 kg/m3
same,mass density,22291 kPa,1516.2 ± 1.6 kg/m3
same,mass density,22322 kPa,1516.3 ± 1.6 kg/m3
same,mass density,22358 kPa,1516.3 ± 1.6 kg/m3
same,mass density,22404 kPa,1516.5 ± 1.7 kg/m3
same,mass density,22440 kPa,1516.7 ± 1.7 kg/m3
same,mass density,22476 kPa,1516.8 ± 1.7 kg/m3
same,mass density,22522 kPa,1516.9 ± 1.7 kg/m3
same,mass density,22548 kPa,1517.1 ± 1.7 kg/m3
same,mass density,22584 kPa,1517.1 ± 1.7 kg/m3
same,mass density,22625 kPa,1517.4 ± 1.7 kg/m3
same,mass density,22661 kPa,1517.5 ± 1.7 kg/m3
same,mass density,22702 kPa,1517.6 ± 1.7 kg/m3
same,mass density,22744 kPa,1517.7 ± 1.7 kg/m3
same,mass density,22781 kPa,1517.9 ± 1.7 kg/m3
same,mass density,22813 kPa,1518 ± 1.7 kg/m3
same,mass density,22849 kPa,1518.2 ± 1.7 kg/m3
same,mass density,22886 kPa,1518.3 ± 1.7 kg/m3
same,mass density,22923 kPa,1518.4 ± 1.7 kg/m3
same,mass density,22959 kPa,1518.6 ± 1.7 kg/m3
same,mass density,23001 kPa,1518.7 ± 1.7 kg/m3
same,mass density,23042 kPa,1518.8 ± 1.7 kg/m3
same,mass density,23072 kPa,1518.8 ± 1.7 kg/m3
same,mass density,23118 kPa,1519 ± 1.7 kg/m3
same,mass density,23154 kPa,1519.1 ± 1.7 kg/m3
same,mass density,23191 kPa,1519.3 ± 1.7 kg/m3
same,mass density,23228 kPa,1519.5 ± 1.7 kg/m3
same,mass density,23271 kPa,1519.7 ± 1.7 kg/m3
same,mass density,23308 kPa,1519.7 ± 1.7 kg/m3
same,mass density,23350 kPa,1519.8 ± 1.7 kg/m3
same,mass density,23392 kPa,1520 ± 1.7 kg/m3
same,mass density,23424 kPa,1520.1 ± 1.7 kg/m3
same,mass density,23466 kPa,1520.2 ± 1.7 kg/m3
same,mass density,23513 kPa,1520.5 ± 1.7 kg/m3
same,mass density,23540 kPa,1520.6 ± 1.7 kg/m3
same,mass density,23577 kPa,1520.5 ± 1.7 kg/m3
same,mass density,23615 kPa,1520.7 ± 1.7 kg/m3
same,mass density,23648 kPa,1520.9 ± 1.7 kg/m3
same,mass density,23692 kPa,1521 ± 1.7 kg/m3
same,mass density,23735 kPa,1521.1 ± 1.7 kg/m3
same,mass density,23815 kPa,1521.5 ± 1.7 kg/m3
same,mass density,23852 kPa,1521.6 ± 1.7 kg/m3
same,mass density,23883 kPa,1521.6 ± 1.7 kg/m3
same,mass density,23925 kPa,1521.8 ± 1.7 kg/m3
same,mass density,23962 kPa,1521.9 ± 1.7 kg/m3
same,mass density,23986 kPa,1522.1 ± 1.7 kg/m3
same,mass density,24019 kPa,1522.1 ± 1.7 kg/m3
same,mass density,24048 kPa,1522.3 ± 1.7 kg/m3
same,mass density,24087 kPa,1522.4 ± 1.7 kg/m3
same,mass density,24120 kPa,1522.5 ± 1.7 kg/m3
same,mass density,24149 kPa,1522.6 ± 1.7 kg/m3
same,mass density,24187 kPa,1522.7 ± 1.7 kg/m3
same,mass density,24229 kPa,1522.8 ± 1.7 kg/m3
same,mass density,24263 kPa,1523 ± 1.7 kg/m3
same,mass density,24297 kPa,1523 ± 1.7 kg/m3
same,mass density,24326 kPa,1523.2 ± 1.7 kg/m3
same,mass density,24354 kPa,1523.2 ± 1.7 kg/m3
same,mass density,24393 kPa,1523.3 ± 1.7 kg/m3
same,mass density,24422 kPa,1523.3 ± 1.7 kg/m3
same,mass density,24451 kPa,1523.5 ± 1.7 kg/m3
same,mass density,24485 kPa,1523.6 ± 1.7 kg/m3
same,mass density,24524 kPa,1523.8 ± 1.7 kg/m3
same,mass density,24553 kPa,1523.9 ± 1.7 kg/m3
same,mass density,24587 kPa,1524.1 ± 1.7 kg/m3
same,mass density,24630 kPa,1524.2 ± 1.7 kg/m3
same,mass density,24659 kPa,1524.3 ± 1.7 kg/m3
same,mass density,24698 kPa,1524.5 ± 1.7 kg/m3
same,mass density,24728 kPa,1524.6 ± 1.7 kg/m3
same,mass density,24757 kPa,1524.6 ± 1.7 kg/m3
same,mass density,24786 kPa,1524.7 ± 1.7 kg/m3
same,mass density,24816 kPa,1524.7 ± 1.7 kg/m3
same,mass density,24851 kPa,1524.9 ± 1.7 kg/m3
same,mass density,24886 kPa,1525 ± 1.7 kg/m3
same,mass density,24920 kPa,1525.2 ± 1.7 kg/m3
same,mass density,24949 kPa,1525.2 ± 1.7 kg/m3
same,mass density,24991 kPa,1525.5 ± 1.7 kg/m3
same,mass density,25030 kPa,1525.6 ± 1.7 kg/m3
same,mass density,25059 kPa,1525.6 ± 1.7 kg/m3
same,mass density,25097 kPa,1525.8 ± 1.7 kg/m3
same,mass density,25136 kPa,1525.9 ± 1.7 kg/m3
same,mass density,25165 kPa,1526.1 ± 1.7 kg/m3
same,mass density,25199 kPa,1526.1 ± 1.7 kg/m3
same,mass density,25229 kPa,1526.1 ± 1.7 kg/m3
same,mass density,25268 kPa,1526.4 ± 1.7 kg/m3
same,mass density,25297 kPa,1526.4 ± 1.7 kg/m3
same,mass density,25326 kPa,1526.6 ± 1.7 kg/m3
same,mass density,25360 kPa,1526.8 ± 1.7 kg/m3
same,mass density,25393 kPa,1526.6 ± 1.7 kg/m3
same,mass density,25438 kPa,1526.9 ± 1.7 kg/m3
same,mass density,25466 kPa,1527 ± 1.7 kg/m3
same,mass density,25496 kPa,1527.2 ± 1.7 kg/m3
same,mass density,25530 kPa,1527.2 ± 1.7 kg/m3
same,mass density,25569 kPa,1527.4 ± 1.7 kg/m3
same,mass density,25594 kPa,1527.4 ± 1.7 kg/m3
same,mass density,25639 kPa,1527.4 ± 1.7 kg/m3
same,mass density,25678 kPa,1527.7 ± 1.7 kg/m3
same,mass density,25708 kPa,1527.9 ± 1.7 kg/m3
same,mass density,25747 kPa,1527.9 ± 1.7 kg/m3
same,mass density,25791 kPa,1528.1 ± 1.7 kg/m3
same,mass density,25816 kPa,1528.2 ± 1.7 kg/m3
same,mass density,25845 kPa,1528.1 ± 1.7 kg/m3
same,mass density,25889 kPa,1528.4 ± 1.7 kg/m3
same,mass density,25923 kPa,1528.5 ± 1.7 kg/m3
same,mass density,25958 kPa,1528.6 ± 1.7 kg/m3
same,mass density,25994 kPa,1528.8 ± 1.7 kg/m3
same,mass density,26024 kPa,1528.9 ± 1.7 kg/m3
same,mass density,26068 kPa,1529 ± 1.7 kg/m3
same,mass density,26112 kPa,1529.1 ± 1.7 kg/m3
same,mass density,26141 kPa,1529.3 ± 1.7 kg/m3
same,mass density,26181 kPa,1529.4 ± 1.7 kg/m3
same,mass density,26220 kPa,1529.5 ± 1.7 kg/m3
same,mass density,26250 kPa,1529.5 ± 1.7 kg/m3
same,mass density,26284 kPa,1529.7 ± 1.7 kg/m3
same,mass density,26319 kPa,1529.8 ± 1.7 kg/m3
same,mass density,26349 kPa,1529.9 ± 1.7 kg/m3
same,mass density,26391 kPa,1530.1 ± 1.7 kg/m3
same,mass density,26430 kPa,1530.1 ± 1.7 kg/m3
same,mass density,26455 kPa,1530.3 ± 1.7 kg/m3
same,mass density,26504 kPa,1530.5 ± 1.7 kg/m3
same,mass density,26534 kPa,1530.6 ± 1.7 kg/m3
same,mass density,26570 kPa,1530.6 ± 1.7 kg/m3
same,mass density,26610 kPa,1530.7 ± 1.7 kg/m3
same,mass density,26646 kPa,1530.8 ± 1.7 kg/m3
same,mass density,26682 kPa,1530.9 ± 1.7 kg/m3
same,mass density,26717 kPa,1531.1 ± 1.7 kg/m3
same,mass density,26753 kPa,1531.3 ± 1.7 kg/m3
same,mass density,26784 kPa,1531.3 ± 1.7 kg/m3
same,mass density,26824 kPa,1531.4 ± 1.7 kg/m3
same,mass density,26864 kPa,1531.6 ± 1.7 kg/m3
same,mass density,26899 kPa,1531.6 ± 1.7 kg/m3
same,mass density,26939 kPa,1531.8 ± 1.7 kg/m3
same,mass density,26979 kPa,1532 ± 1.7 kg/m3
same,mass density,27009 kPa,1532.1 ± 1.7 kg/m3
same,mass density,27045 kPa,1532.2 ± 1.7 kg/m3
same,mass density,27080 kPa,1532.3 ± 1.7 kg/m3
same,mass density,27115 kPa,1532.4 ± 1.7 kg/m3
same,mass density,27151 kPa,1532.6 ± 1.7 kg/m3
same,mass density,27188 kPa,1532.6 ± 1.7 kg/m3
same,mass density,27224 kPa,1532.8 ± 1.7 kg/m3
same,mass density,27265 kPa,1532.9 ± 1.7 kg/m3
same,mass density,27302 kPa,1533.1 ± 1.7 kg/m3
